According to US20260060947A1 (INSTITUT PASTEUR DE MONTEVIDEO, priority 2019, published 2026):
“Also recorded” adds a separate entry of the source.

What was measured:
NLRP3 inflammasome = experiment: Inflammasome activation in THP-1 cells (LPS and ATP), IL-1β ELISA; assay type: cell-based, Human; details: 30 μM, in first or second signal (LPS and ATP), compared with vehicle
Procedure: The effect of BANA or BA over NF-κB-dependent gene expression was studied by qPCR using THP-1 cells. THP-1 cells were differentiated into macrophages and treated with BANA (30 μM) or BA (30 μM) for 2 hs, followed by stimulation with LPS (100 ng/mL, for 3-4 h).
For inflammasome activation, THP-1 cells were treated with LPS (as above) followed by exposure to ATP (5 mM, 45 min). IL-1β in the supernatant was then measured by ELISA (B&D OptEIA TM, San Diego, CA, USA).

[1] = LC50 in cell culture of HT-29; assay type: cell-based; details: human, HT-29 cells; HT-29 cell culture
NF-κB-p65 = experiment: LPS-induced NF-κB-p65 nuclear translocation in SOD1^G93A primary microglia; assay type: cell-based, rat; details: BANA 10-30 μM before LPS
Procedure: FIG. 8D: Confocal images show CD11b-positive SOD1^G93A primary microglia (grey) treated with BANA, BA or vehicle, before LPS stimulation. […] Nuclear NF-κB-p65 colocalizing with DAPI nuclear staining is denoted in yellow.
Nuclear NF-κB-p65 colocalizing with DAPI nuclear staining is denoted in yellow. […] Scale bar=20 μm. […] 2 replicates of 3 independent experiments.
The effects of BANA on LPS- or TNFα-induced NF-κB activation were also assayed in cell cultures of BV2 microglial cell line and primary adult microglia isolated from symptomatic SOD1^G93A rats, and HT-29 NF-κB reporter cell line, respectively.

SOD1^G93A rats [2] = experiment: Post-paralysis survival trial in SOD1^G93A rats; assay type: in vivo, rat
Procedure: Only female transgenic rats showing weakness and gait alterations in the […] as the first clinical sign were selected for BANA treatment studies. Rats were divided randomly into BANA or vehicle-treated groups. BANA was freshly prepared in buffer phosphate (PB), and administrated daily at a dose of 100 mg/kg using a curved stainless steel gavage needle with 3-mm ball tip. Rats were treated from day-1 post-paralysis for 15 days or until end-stage when they were euthanized.
All rats were weighed and evaluated for motor activity daily. Disease onset was determined for each animal when pronounced muscle atrophy accompanied by abnormal gait, typically expressed as subtle limping or dragging of one hind limb. End-stage was defined by a lack of righting reflexes or the inability to reach food and water.
Survival curves were compared by Kaplan-Meier analysis with the Log-rank test using GraphPad Prism 7 software.
To test whether systemic treatment with BANA could prolong the survival of SOD1^G93A rats, a trial was conducted in which rats were orally treated with BANA (100 mg/kg/day) or vehicle, starting immediately after paralysis onset of one hind limb until the end-stage of the disease.

NF-κB = experiment: LPS-induced NF-κB activation in NF-κB-RE-Luc reporter mouse; assay type: in vivo; details: intraperitoneal, 2 h before LPS; BANA 10, 20 and 30 mg/kg; BA 30 mg/kg; DMF 30 mg/kg
Procedure: To determine whether BANA was capable of preventing LPS-induced NF-κB activation, intraperitoneal administration of BANA (10, 20, and 30 mg/kg) were followed by LPS intraperitoneal administration to an NF-κB-reporter transgenic mouse.

IL-1β = IL-1β in peritoneum and plasma of LPS-injected mice (ELISA); assay type: in vivo; details: 50 mg/kg IP 1 h before LPS 10 mg/kg, measured 3 h later, compared to vehicle and BA
Procedure: BANA (50 mg/kg), BA (50 mg/kg) or vehicle, were intraperitoneally (IP) injected 1 h before LPS intraperitoneal administration (10 mg/kg). 3 h later, IL-1β levels were measured in the peritoneum and plasma by ELISA.
In turn, BANA was able to reduce IL-1β concentration in plasma and peritoneum of mice intraperitoneally injected with LPS respect to controls (FIGS. 8A-1 and 8A-2). BANA (50 mg/kg), BA (50 mg/kg) or vehicle, were intraperitoneally (IP) injected 1 h before LPS intraperitoneal administration (10 mg/kg). 3 h later, IL-1β levels were measured in the peritoneum and plasma by ELISA. […] All data are expressed as mean±SEM; data were analyzed by Ordinary one-way ANOVA followed by Tukey's multiple comparisons test, ***p=0.0002 ****p<0,0001. n=3 animals per condition.

SOD1^G93A rats [3] = experiment: Motor neuron analysis in lumbar spinal cord (ChAT, soma size, ubiquitin, nitrotyrosine, synaptic terminals); assay type: in vivo, rat
Procedure: One of the main features of ALS in both human patients and animal models is motor neuron loss, thus the effect of BANA on motor neuron size and number was characterized. To further investigate the protective effect of BANA on motor neuron pathology in SOD1^G93A symptomatic rats, experiments were conducted to assess the number of synaptic terminals contacting motor neuron cell bodies in the ventral spinal cord as well as the denervation of neuromuscular junctions.
The number of motor neurons expressing ChAT was assessed by counting the positive cells in the gray matter of the lumbar spinal cord of non-transgenic compared with symptomatic SOD1^G93A onset, vehicle- and BANA treated rats. Motor neuron counting was assessed by counting ChAT positive cells in the ventral horn on eight 30 μm sections taken 100 μm apart. The longest axis (length) of each soma was taken into consideration to quantify the mean size of motor neuron soma. The analysis was performed manually in at least 10 histological sections per animal (four different rats for each condition) using the cell counter tool of the ImageJ software. Statistical studies were performed using statistical tools of the GraphPad Prism 7 software. Descriptive statistics were used for each group, and Kruskal-Wallis analysis followed by Dunn's comparison test was used among groups. Results are presented as mean±SEM, with p<0.05 considered significant.
In other experiments, the number of synaptic vesicles contacting motor neuron cell bodies was assessed by immunohistochemistry by counting VGlut-1-positive and Synaptophysin-positive puncta in Rexed laminae VII and IX. Synaptic terminals were quantified in at least 20 motor neurons per animal (4 different rats per condition) using the Analyze Particles tool of ImageJ software.

[4] = LC50 in cell culture of SOD1^G93A adult microglia; assay type: cell-based; details: rat
[5] = oral 100 mg/kg/day from paralysis onset until end-stage
[6] = 100 mg/kg/day, 15 days after paralysis onset, vs vehicle

O=C(O)c1ccc(/C=C/[N+](=O)[O-])cc1 [BANA, (E)-4-(2-nitrovinyl) benzoic acid]
release of IL-1β (NLRP3 inflammasome): almost completely prevented
CC50 [1]: 80 µM
LPS-induced NF-κB-p65 nuclear translocation (NF-κB-p65): inhibits; also recorded: potently prevented
increase probability of survival compared with vehicle-treated rats (SOD1^G93A rats [2]; [5]): 32%
mean survival time (SOD1^G93A rats [2]; [5]): evidence of a survival benefit
post-paralysis survival prolonged respect to vehicle (SOD1^G93A rats [2]; oral, starting after disease onset): 32%
LPS-induced NF-κB activation in vivo (NF-κB): significantly decreased; also recorded: significantly inhibited
IL-1β concentration in plasma (IL-1β): significantly reduces
IL-1β concentration in the peritoneum (IL-1β): significantly reduces
loss of VGlut-1-positive and Synaptophysin-positive synaptic terminals (SOD1^G93A rats [3]; 100 mg/kg/day post-paralysis, vs vehicle): significantly prevented
number of ChAT+ motor neurons (SOD1^G93A rats [3]; 100 mg/kg/day, 15 days after paralysis onset): prevented motor neuron loss
NO2-Tyrosine accumulation in surviving motor neurons (SOD1^G93A rats [3]; [6]): significantly prevented
motor neuron size (SOD1^G93A rats [3]; [6]): ameliorated
ubiquitin accumulation / aggregation in motor neurons (SOD1^G93A rats [3]; [6]): significantly prevented
CC50 [4]: 30 µM
